# From patent US5955500A (G. D. Searle & Co., priority 1997, dated 1999)
# “And” between values parts separate entries of the source, which are not always exact repeats. Identical values can stand only once. Like-named read-outs stand apart in the source and are kept apart here.
# How the values were obtained:
# [1] = test system: canine heart; conditions: for AH time / Heart rate / Mean arterial pressure: mean ± SE
# Method: Fourteen adult mongrel dogs of either sex weighing between 19 and 25 kg were prepared for chronic electrophysiologic investigation by implanting epicardial electrodes and an indwelling aortic catheter. The dogs were fasted overnight and initially anesthetized with halothane on the day of surgery. After tracheal intubation, anesthesia was maintained with isoflurane and oxygen via positive pressure ventilation to keep end tidal carbon dioxide within the normal range. Muscular relaxation was induced by pancuronium. A right thoracotomy was performed in the fifth intercostal space. Three bipolar electrode pairs were sutured to the epicardial surface of the right atrial appendage and on the right and left ventricular apex (FIG. 5). A bipolar electrode was sutured to the right atrium close to the anatomical region of the sinoatrial node. A bipolar plunge electrode was placed into base of the interventricular septum to record a His bundle electrogram. An indwelling arterial catheter was placed into the aorta through the left femoral artery after surgical exposure of the artery at the inner side of the hind limb. All electrode leads were subcutaneously tunneled and exited through the skin between the scapulae. Incisions were closed in anatomic fashion and standard postoperative methods of analgesia were provided with 0.015 mg/kg of buprenorphine (Buprenex®, Reckitt & Colman, Hull, UK) and two times of 25 mg/kg cefazolin (Cefazolin Sodium®, SoloPak Laboratories, Elk Groove Village, Ill.) and dogs were allowed to recover from surgery for a period of seven days prior to testing.
# Electrical signals from the bipolar electrodes, after suitable amplification in a custom built preamplifier (gain 1000), were filtered in a separate custom designed and built common mode rejection amplifier with a bandpass filter of 10-1000 Hz and individually adjusted for signal strength (maximal gain 400). […] Right atrial appendage (RA), right ventricular apex (RVA) and His bundle electrograms (HB) were recorded, simultaneously. […] All measurements of conduction times were made during spontaneous sinus rhythm.
# The His bundle electrode (HBE) was advanced into the base of the interatrial septum from the aortic root. The electrode was advanced from a point located just behind and to the right of the origin of the right coronary artery. The HBE was slowly advanced parallel to the aorta, inferiorly and slightly anteriorly until a well discernible His potential was recorded. AV conduction (AH) interval was measured as the time difference (ms) between the onset of the initial rapid deflection in the RA electrogram to the beginning of the His potential in the HB electrogram. His-ventricular (HV) conduction time interval (ms) was measured from the beginning of the His potential (HBE) to the initial deflection of the QRS complex wave (earliest left ventricular activation) in a simultaneously recorded surface ECG lead II.
# As an indicator of automaticity, sinus node recovery time (SNRT) was determined by pacing the right atrial appendage (30 s at 180 and 200 beats/min at 2 msec pulse duration; 2×threshold). SNRT was measured from the last pacing spike to the first spontaneous atrial activity on the His bundle electrogram after cessation of pacing (ms).
# A timed extrastimulus (S2) was delivered 300 ms after the preceding pacing spike (S1).
# Verapamil was dissolved in 5% dextrose and water ([…]).
# During the postoperative period, each dog was trained to stand quietly in a sling during electrophysiological monitoring. Prior to measurement, electrical signals in each dog were monitored to verify the absence of spontaneous arrhythmias other-than normal respiratory sinus arrhythmias.
# From the resting dog, 5 channel records were obtained at a sampling rate of 1 kHz per channel for 7 min to determine the following conduction intervals: AH, HV, QRS, QT and HR. A corrected QT interval [QTc=QT interval in ms/ (R-R interval in s)^1/2 ] was also calculated.
# [2] = pH 5, individual replicates
compound,measurement,setting,value
COc1ccc(CCN(C)CCCC(C#N)(c2ccc(OC)c(OC)c2)C(C)C)cc1OC (racemic) [80/20S],AH time,"[1]; 0.1 mg/kg i.v., 0 min",90 ± 4 ms
same,Heart rate,"[1]; 0.1 mg/kg i.v., 0 min",125 ± 8 beats per min
same,Mean arterial pressure,"[1]; 0.1 mg/kg i.v., 0 min",96 ± 3 mmHg
same,AH time,"[1]; 0.1 mg/kg i.v., 1 min",95 ± 5 ms
same,Heart rate,"[1]; 0.1 mg/kg i.v., 1 min",126 ± 7 beats per min
same,Mean arterial pressure,"[1]; 0.1 mg/kg i.v., 1 min",99 ± 3 mmHg
same,AH time,"[1]; 0.1 mg/kg i.v., 2 min",97 ± 5 ms
same,Heart rate,"[1]; 0.1 mg/kg i.v., 2 min",119 ± 7 beats per min
same,Mean arterial pressure,"[1]; 0.1 mg/kg i.v., 2 min",98 ± 3 mmHg
same,AH time,"[1]; 0.1 mg/kg i.v., 3 min",98 ± 5 ms
same,Heart rate,"[1]; 0.1 mg/kg i.v., 3 min",115 ± 7 beats per min
same,Mean arterial pressure,"[1]; 0.1 mg/kg i.v., 3 min",99 ± 3 mmHg
same,AH time,"[1]; 0.1 mg/kg i.v., 4 min",96 ± 5 ms
same,Heart rate,"[1]; 0.1 mg/kg i.v., 4 min",116 ± 8 beats per min
same,Mean arterial pressure,"[1]; 0.1 mg/kg i.v., 4 min",100 ± 3 mmHg
same,AH time,"[1]; 0.1 mg/kg i.v., 5 min",96 ± 6 ms
same,Heart rate,"[1]; 0.1 mg/kg i.v., 5 min",123 ± 7 beats per min
same,Mean arterial pressure,"[1]; 0.1 mg/kg i.v., 5 min",100 ± 3 mmHg
same,AH time,"[1]; 0.2 mg/kg i.v., 0 min",99 ± 5 ms
same,Heart rate,"[1]; 0.2 mg/kg i.v., 0 min",136 ± 9 beats per min
same,Mean arterial pressure,"[1]; 0.2 mg/kg i.v., 0 min",89 ± 2 mmHg
same,AH time,"[1]; 0.2 mg/kg i.v., 1 min",111 ± 8 ms
same,Heart rate,"[1]; 0.2 mg/kg i.v., 1 min",134 ± 8 beats per min
same,Mean arterial pressure,"[1]; 0.2 mg/kg i.v., 1 min",95 ± 4 mmHg
same,AH time,"[1]; 0.2 mg/kg i.v., 2 min",115 ± 9 ms
same,Heart rate,"[1]; 0.2 mg/kg i.v., 2 min",129 ± 7 beats per min
same,Mean arterial pressure,"[1]; 0.2 mg/kg i.v., 2 min",94 ± 4 mmHg
same,AH time,"[1]; 0.2 mg/kg i.v., 3 min",113 ± 8 ms
same,Heart rate,"[1]; 0.2 mg/kg i.v., 3 min",124 ± 7 beats per min
same,Mean arterial pressure,"[1]; 0.2 mg/kg i.v., 3 min",97 ± 4 mmHg
same,AH time,"[1]; 0.2 mg/kg i.v., 4 min",115 ± 9 ms
same,Heart rate,"[1]; 0.2 mg/kg i.v., 4 min",125 ± 8 beats per min
same,Mean arterial pressure,"[1]; 0.2 mg/kg i.v., 4 min",99 ± 3 mmHg
same,AH time,"[1]; 0.2 mg/kg i.v., 5 min",116 ± 9 ms
same,Heart rate,"[1]; 0.2 mg/kg i.v., 5 min",123 ± 9 beats per min
same,Mean arterial pressure,"[1]; 0.2 mg/kg i.v., 5 min",98 ± 3 mmHg
same,AH time,"[1]; 0.4 mg/kg i.v., 0 min",111 ± 5 ms
same,Mean arterial pressure,"[1]; 0.4 mg/kg i.v., 0 min",87 ± 3 mmHg
same,Heart rate,"[1]; 0.4 mg/kg i.v., 0 min, listed as 80/205",155 ± 12 beats per min
same,AH time,"[1]; 0.4 mg/kg i.v., 1 min",121 ± 4 ms
same,Mean arterial pressure,"[1]; 0.4 mg/kg i.v., 1 min",95 ± 3 mmHg
same,Heart rate,"[1]; 0.4 mg/kg i.v., 1 min, listed as 80/205",153 ± 11 beats per min
same,AH time,"[1]; 0.4 mg/kg i.v., 2 min",123 ± 5 ms
same,Mean arterial pressure,"[1]; 0.4 mg/kg i.v., 2 min",97 ± 3 mmHg
same,Heart rate,"[1]; 0.4 mg/kg i.v., 2 min, listed as 80/205",149 ± 10 beats per min
same,AH time,"[1]; 0.4 mg/kg i.v., 3 min",125 ± 6 ms
same,Mean arterial pressure,"[1]; 0.4 mg/kg i.v., 3 min",101 ± 3 mmHg
same,Heart rate,"[1]; 0.4 mg/kg i.v., 3 min, listed as 80/205",147 ± 10 beats per min
same,AH time,"[1]; 0.4 mg/kg i.v., 4 min",127 ± 6 ms
same,Mean arterial pressure,"[1]; 0.4 mg/kg i.v., 4 min",103 ± 3 mmHg
same,Heart rate,"[1]; 0.4 mg/kg i.v., 4 min, listed as 80/205",140 ± 7 beats per min
same,AH time,"[1]; 0.4 mg/kg i.v., 5 min",129 ± 6 ms
same,Mean arterial pressure,"[1]; 0.4 mg/kg i.v., 5 min",103 ± 3 mmHg
same,Heart rate,"[1]; 0.4 mg/kg i.v., 5 min, listed as 80/205",135 ± 9 beats per min
same,Occurrence of second and third degree AV conduction block,"[1]; 0.4 mg/kg i.v., listed as 80R/20S-verapamil",3 animals
COc1ccc(CCN(C)CCCC(C#N)(c2ccc(OC)c(OC)c2)C(C)C)cc1OC (racemic) [90/10S],AH time,"[1]; 0.1 mg/kg i.v., 0 min",87 ± 6 ms
same,Heart rate,"[1]; 0.1 mg/kg i.v., 0 min",111 ± 7 beats per min
same,Mean arterial pressure,"[1]; 0.1 mg/kg i.v., 0 min",94 ± 3 mmHg
same,AH time,"[1]; 0.1 mg/kg i.v., 1 min",88 ± 6 ms
same,Heart rate,"[1]; 0.1 mg/kg i.v., 1 min",103 ± 7 beats per min
same,Mean arterial pressure,"[1]; 0.1 mg/kg i.v., 1 min",97 ± 4 mmHg
same,AH time,"[1]; 0.1 mg/kg i.v., 2 min",90 ± 6 ms
same,Heart rate,"[1]; 0.1 mg/kg i.v., 2 min",104 ± 6 beats per min
same,Mean arterial pressure,"[1]; 0.1 mg/kg i.v., 2 min",99 ± 3 mmHg
same,AH time,"[1]; 0.1 mg/kg i.v., 3 min",91 ± 6 ms
same,Heart rate,"[1]; 0.1 mg/kg i.v., 3 min",101 ± 8 beats per min
same,Mean arterial pressure,"[1]; 0.1 mg/kg i.v., 3 min",99 ± 3 mmHg
same,AH time,"[1]; 0.1 mg/kg i.v., 4 min",89 ± 6 ms
same,Heart rate,"[1]; 0.1 mg/kg i.v., 4 min",101 ± 7 beats per min
same,Mean arterial pressure,"[1]; 0.1 mg/kg i.v., 4 min",100 ± 4 mmHg
same,AH time,"[1]; 0.1 mg/kg i.v., 5 min",89 ± 7 ms
same,Heart rate,"[1]; 0.1 mg/kg i.v., 5 min",103 ± 7 beats per min
same,Mean arterial pressure,"[1]; 0.1 mg/kg i.v., 5 min",99 ± 3 mmHg
same,AH time,"[1]; 0.2 mg/kg i.v., 0 min",91 ± 7 ms
same,Heart rate,"[1]; 0.2 mg/kg i.v., 0 min",123 ± 7 beats per min
same,Mean arterial pressure,"[1]; 0.2 mg/kg i.v., 0 min",94 ± 4 mmHg
same,AH time,"[1]; 0.2 mg/kg i.v., 1 min",95 ± 8 ms
same,Heart rate,"[1]; 0.2 mg/kg i.v., 1 min",124 ± 10 beats per min
same,Mean arterial pressure,"[1]; 0.2 mg/kg i.v., 1 min",98 ± 4 mmHg
same,AH time,"[1]; 0.2 mg/kg i.v., 2 min",99 ± 8 ms
same,Heart rate,"[1]; 0.2 mg/kg i.v., 2 min",116 ± 7 beats per min
same,Mean arterial pressure,"[1]; 0.2 mg/kg i.v., 2 min",99 ± 4 mmHg
same,AH time,"[1]; 0.2 mg/kg i.v., 3 min",98 ± 7 ms
same,Heart rate,"[1]; 0.2 mg/kg i.v., 3 min",113 ± 6 beats per min
same,Mean arterial pressure,"[1]; 0.2 mg/kg i.v., 3 min",99 ± 4 mmHg
same,AH time,"[1]; 0.2 mg/kg i.v., 4 min",97 ± 7 ms
same,Heart rate,"[1]; 0.2 mg/kg i.v., 4 min",116 ± 7 beats per min
same,Mean arterial pressure,"[1]; 0.2 mg/kg i.v., 4 min",100 ± 4 mmHg
same,AH time,"[1]; 0.2 mg/kg i.v., 5 min",104 ± 7 ms
same,Heart rate,"[1]; 0.2 mg/kg i.v., 5 min",118 ± 8 beats per min
same,Mean arterial pressure,"[1]; 0.2 mg/kg i.v., 5 min",101 ± 3 mmHg
same,AH time,"[1]; 0.4 mg/kg i.v., 0 min",100 ± 9 ms
same,Heart rate,"[1]; 0.4 mg/kg i.v., 0 min",145 ± 10 beats per min
same,Mean arterial pressure,"[1]; 0.4 mg/kg i.v., 0 min",83 ± 7 mmHg
same,AH time,"[1]; 0.4 mg/kg i.v., 1 min",111 ± 10 ms
same,Heart rate,"[1]; 0.4 mg/kg i.v., 1 min",134 ± 9 beats per min
same,Mean arterial pressure,"[1]; 0.4 mg/kg i.v., 1 min",89 ± 7 mmHg
same,AH time,"[1]; 0.4 mg/kg i.v., 2 min",116 ± 10 ms
same,Heart rate,"[1]; 0.4 mg/kg i.v., 2 min",128 ± 10 beats per min
same,Mean arterial pressure,"[1]; 0.4 mg/kg i.v., 2 min",90 ± 7 mmHg
same,AH time,"[1]; 0.4 mg/kg i.v., 3 min",116 ± 12 ms
same,Heart rate,"[1]; 0.4 mg/kg i.v., 3 min",128 ± 11 beats per min
same,Mean arterial pressure,"[1]; 0.4 mg/kg i.v., 3 min",90 ± 7 mmHg
same,AH time,"[1]; 0.4 mg/kg i.v., 4 min",114 ± 9 ms
same,Heart rate,"[1]; 0.4 mg/kg i.v., 4 min",129 ± 10 beats per min
same,Mean arterial pressure,"[1]; 0.4 mg/kg i.v., 4 min",93 ± 7 mmHg
same,AH time,"[1]; 0.4 mg/kg i.v., 5 min",112 ± 10 ms
same,Heart rate,"[1]; 0.4 mg/kg i.v., 5 min",125 ± 9 beats per min
same,Mean arterial pressure,"[1]; 0.4 mg/kg i.v., 5 min",92 ± 7 mmHg
same,"Sinus node recovery time (SNRT), significance",[1]; paced at 200 beats/min,significant decrease
COc1ccc(CCN(C)CCCC(C#N)(c2ccc(OC)c(OC)c2)C(C)C)cc1OC (racemic) [compound 70],Concentration in octanol,[2],4.35 µg/mL and 4.20 µg/mL and 4.24 µg/mL
same,Concentration in water,[2],5.81 µg/mL and 6.00 µg/mL and 5.38 µg/mL
COc1ccc(CCN(C)CCCC(C#N)(c2ccc(OC)c(OC)c2)C(C)C)cc1OC (racemic) [compound 90],Concentration in octanol,[2],5.80 µg/mL and 5.29 µg/mL and 4.79 µg/mL
same,Concentration in water,[2],5.90 µg/mL and 6.18 µg/mL and 5.10 µg/mL
